Results from article PMC12250628, “Pharmacokinetics of Cannabidiol in Rat Brain Tissue After Single-Dose Administration of Different Formulations” (Molecules, 2025).

Tests used:
[1] = design: method as in PMID 34330718, PMID 28861484; settings: phase I CBD metabolites; cited from earlier work
[2] = Locomotor behavior and cognitive performance of the studied animals after CBD administration; type: in vivo, rat; settings: rats, single oral dose of 10 mg/kg CBD

Structure (SMILES) | pharmacological activity [1] | impact on locomotor behavior and cognitive performance [2]
C=C(C)[C@@H]1CCC(CO)=C[C@H]1c1c(O)cc(CCCCC)cc1O [Carrier 7-OH-CBD, 7-hydroxy-cannabidiol] | pharmacologically active | –
C=C(C)[C@@H]1CCC(C(=O)O)=C[C@H]1c1c(O)cc(CCCCC)cc1O [Carrier 7-COOH-CBD, 7-carboxy-cannabidiol] | does not exhibit such activity anymore | –
C=C(C)[C@@H]1CCC(C)=C[C@H]1c1c(O)cc(CCCCC)cc1O [CBD, cannabidiol] | – | no negative impacts on locomotor behavior and cognitive performance
